This is an account of results in US20260207765A1, “COVALENTLY-MODIFIED STEROID ACID-PEPTIDES HAVING ENHANCED STABILITY AND/OR BIOLOGICAL ACTIVITY” (priority 2022, published 2026).

One series concerns 4T1 breast cancer cells. The series can be described thus: Apoptosis analysis by flow cytometry. It counts as cell-based. The following applies: 95 and 190 μM. As for the experimental part:
(§1) Apoptosis analysis was conducted by flow-cytometry. Briefly, target cells were first treated then washed. Treated cells were then re-suspended in Annexin-V staining buffer prior to staining with Annexin-V and propidium iodine (PI). Fifteen minutes later, cells were washed prior to analysis using BD FACS™ Diva on CANTOII™.
In general terms: A flow cytometer gives signals particle by particle.

For series [1], the system named is CT-26 colon carcinoma cells. The series is described as follows: Apoptosis analysis by flow cytometry. It counts as cell-based. To be noted: 95 and 190 μM. As for the experimental part:
as §1

A further series deals with B16 melanoma cells. The series can be described thus: Apoptosis analysis by flow cytometry. It counts as cell-based. To be noted: 95 and 190 μM. As for the experimental part: as §1
In series [2] the test system is E0771 breast cancer cells. The series is described as follows: Apoptosis analysis by flow cytometry. It counts as cell-based. To be noted: 95 and 190 μM. Here is the method: as §1
The subject of series [3] is wild-type MSC and B3Z reporter system. The series is described as follows: Antigen cross-presentation, wild-type MSC and B3Z reporter system. To be noted: 100 μM.
Series [4] can be described thus: Stability testing (impurities by HPLC). It counts as physicochemical. The text has this:
GMP synthesis of the CDCA-C-SV40 monomer yielded a white powder and the results of initial stability testing is summarized below:
As shown above, two main impurities were detected by HPLC relating to the reactivity of the free thiol group of the CDCA-C-SV40 monomer, namely impurities resulting from oxidation of the thiol group (Impurity A) and the formation an intermolecular disulfide bond via the thiol groups of two CDCA-C-SV40 monomers, producing a (CDCA-C-SV40)2 dimer (Impurity B).
To attempt to improve stability, the synthesis protocol of CDCA-C-SV40 was modified to produce the conjugate directly in its dimerized form (Impurity B). […] At 25° C., total impurities rose only slightly from 1.6% at Day 0 to 2.1% after 3 months. At 40° C., total impurities rose from 1.6% at Day 0 to 1.7% after 5 days, 2.4% after 10 days, and to 3.7% after 30 days.

For a further series, the system named is murine MSCs. The series can be described thus: Maximum tolerated dose on murine MSCs over 24 h. It counts as cell-based. The following applies: 50 μM.
Series [5] has as its system JIMT-1 breast cancer cells. The series is described as follows: Cytotoxicity of steroid acid-peptide conjugates in JIMT-1 cells. It counts as cell-based. To be noted: 6.4 μM. Here is the method: as §1
50 mg of CDCA-C-SV40 monomers (or other steroid acid-peptide monomers) were resuspended in 200-500 μL of DMSO. 10 eq of N,N-Diisopropylethylamine (DIPEA) was added to the mixture and incubated in a thermomixer at 37° C. with agitation (1000 rpm) overnight, enabling dimerization of the monomers via their N-terminal cysteine thiol groups to produce (CDCA-C-SV40)2 or other dimers. The samples were then analyzed by UPLC-MS to evaluate dimer formation efficiency. Cell toxicity was evaluated via a Cell Toxicity assay (PrestoBlue™).

In a further series the test system is EL4 lymphoma cells. The series can be described thus: Apoptosis analysis / kill curve by flow cytometry (Annexin-V, PI). It counts as cell-based, mouse. As for the experimental part:
as §1

Positions of bridges follow the written chain, without caps; N, C: chain ends. Residues, ends and D or L forms follow the SMILES beside them. Chains are numbered I, II in the order given. *: point of attachment. Chenodeoxycholyl = C[C@H](CCC(=O)*)[C@H]1CC[C@H]2[C@@H]3[C@H](O)C[C@@H]4C[C@H](O)CC[C@]4(C)[C@H]3CC[C@]12C

Consider `CC(C)[C@H](NC(=O)[C@H](CCCCN)NC(=O)[C@H](CCCNC(=N)N)NC(=O)[C@H](CCCCN)NC(=O)[C@H](CCCCN)NC(=O)[C@H](CCCCN)NC(=O)[C@@H]1CCCN1C(=O)CNC(=O)[C@H](Cc1ccc(O)cc1)NC(=O)CNC(=O)[C@H](CSSC[C@H](NC(=O)CC[C@@H](C)[C@H]1CC[C@H]2[C@@H]3[C@H](O)C[C@@H]4C[C@H](O)CC[C@]4(C)[C@H]3CC[C@]12C)C(=O)NCC(=O)N[C@@H](Cc1ccc(O)cc1)C(=O)NCC(=O)N1CCC[C@H]1C(=O)N[C@@H](CCCCN)C(=O)N[C@@H](CCCCN)C(=O)N[C@@H](CCCCN)C(=O)N[C@@H](CCCNC(=N)N)C(=O)N[C@@H](CCCCN)C(=O)N[C@H](C(=O)NCC(=O)NCC(=O)O)C(C)C)NC(=O)CC[C@@H](C)[C@H]1CC[C@H]2[C@@H]3[C@H](O)C[C@@H]4C[C@H](O)CC[C@]4(C)[C@H]3CC[C@]12C)C(=O)NCC(=O)NCC(=O)O` [(CDCA-C-SV40)2] (I: Chenodeoxycholyl-CGYGPKKKRKVGG-OH / II: Chenodeoxycholyl-CGYGPKKKRKVGG-OH; disulfide I:1-II:1), for which the cytotoxicity result was “potent cytotoxicity” with 4T1 breast cancer cells; “potent cytotoxicity” in series [1]; “potent cytotoxicity” in the series with B16 melanoma cells; “potent cytotoxicity” in series [2]; “potent cytotoxicity” in series [5]; “potent cytotoxicity” with EL4 lymphoma cells (95 and 190 μM). In addition, the “cell death of MSCs” value in series [3] is “significant cell death”. Besides, in series [4], the “stability of dimer compared with corresponding monomer” value is on record as “markedly higher stability”. In the series on murine MSCs, the MSCs growth entry is “diminished but was still present”. Further, the EC50 in the series with EL4 lymphoma cells (EL4 lymphoma cells, flow cytometry, read-out: EC50 (cell death / kill curve)) is 3.2 µM.
